# Measurements from patent US20230183176A1, “PROCESS OF MAKING N,N'-DIACETYL-L-CYSTINE” (Conopco, Inc., d/b/a UNILEVER, priority 2020, published 2023).
# How the values were obtained:
# skin cells = experiment: potentiating glutathione synthesis within skin cells; type: cell-based; conditions: compared with cystine
# [1] = solubility of NDAC compared with cystine; type: physicochemical
# [2] = organic solvents such as alcohols, ethers, esters, ketones; cited from earlier work
Structure (SMILES),performance for potentiating glutathione synthesis within skin cells (skin cells),solubility relative to cystine [1],solubility in organic solvents [2]
"CC(=O)N[C@@H](CSSC[C@H](NC(C)=O)C(=O)O)C(=O)O [NDAC, N,N′-diacetyl-L-Cystine]",comparable to that of cystine,more soluble,–
"N[C@@H](CSSC[C@H](N)C(=O)O)C(=O)O [cystine, L-Cystine]",–,–,practically insoluble
